Results: US20110159515A1, “COMPOSITIONS AND METHODS FOR THE RAPID GROWTH AND DETECTION OF MICROORGANISMS” (SOLUS SCIENTIFIC SOLUTIONS LIMITED, priority 2008, published 2011)

Test system: S. aberdeen
Experiment: Direct binding Salmonella assay (chemiluminescence immunosorbent)

For CCCCCCCCCCCCOS(=O)(=O)[O-].[Na+] [SDS, sodium dodecyl sulphate], the “signal, direct binding Salmonella assay” value (0.3% SDS, conjugate 1:100, 10^4 S. aberdeen, white plate, Lucy I) was 14,314 ± 617^, the “signal, direct binding Salmonella assay” value (0.3% SDS, conjugate 1:100, 10^5 S. aberdeen, white plate, Lucy I) was 209,913 ± 40,150 and the “signal, direct binding Salmonella assay” value (0.3% SDS, conjugate 1:100, 10^6 S. aberdeen, white plate, Lucy I) was 352,714 ± 88,260. For the same molecule, the “signal, direct binding Salmonella assay” value (0.3% SDS, conjugate 1:100, Peptone, white plate, Lucy I) was 3,026 ± 473, the “signal, direct binding Salmonella assay” value (0.4% SDS, conjugate 1:100, 2.5 × 10^4 S. aberdeen, white plate, Lucy I) was 59,399 ± 13,550 and the “signal, direct binding Salmonella assay” value (0.4% SDS, conjugate 1:100, 5 × 10^3 S. aberdeen, white plate, Lucy I) was 25,175 ± 5,025. The “signal, direct binding Salmonella assay” value (0.4% SDS, conjugate 1:100, 5 × 10^4 S. aberdeen, white plate, Lucy I) was 120,481 ± 16,389, the “signal, direct binding Salmonella assay” value (0.4% SDS, conjugate 1:100, 10^4 S. aberdeen, white plate, Lucy I) was 29,127 ± 2,516 and the “signal, direct binding Salmonella assay” value (0.4% SDS, conjugate 1:100, 10^5 S. aberdeen, white plate, Lucy I) was 199,287 ± 67,462. For the same molecule, the “signal, direct binding Salmonella assay” value (0.4% SDS, conjugate 1:100, 10^6 S. aberdeen, white plate, Lucy I) was 398,979 ± 44,871, the “signal, direct binding Salmonella assay” value (0.4% SDS, conjugate 1:100, Peptone, white plate, Lucy I) was 3,499 ± 569 and the “signal, direct binding Salmonella assay” value (0.5% (w/v) SDS (first block), conjugate 1:100, 2.5 × 10^4 S. aberdeen, black and white plates) was 1094 ± 156. For the same molecule, the “signal, direct binding Salmonella assay” value (0.5% (w/v) SDS (first block), conjugate 1:100, 5 × 10^3 S. aberdeen, black and white plates) was 623 ± 9, the “signal, direct binding Salmonella assay” value (0.5% (w/v) SDS (first block), conjugate 1:100, 5 × 10^4 S. aberdeen, black and white plates) was 1,826 ± 166 and the “signal, direct binding Salmonella assay” value (0.5% (w/v) SDS (first block), conjugate 1:100, 10^4 S. aberdeen, black and white plates) was 796 ± 23. The “signal, direct binding Salmonella assay” value (0.5% (w/v) SDS (first block), conjugate 1:100, 10^5 S. aberdeen, black and white plates) was 2,259 ± 103, the “signal, direct binding Salmonella assay” value (0.5% (w/v) SDS (first block), conjugate 1:100, 10^6 S. aberdeen, black and white plates) was 16,959 ± 360^ and the “signal, direct binding Salmonella assay” value (0.5% (w/v) SDS (first block), conjugate 1:100, Peptone, black and white plates) was 705 ± 97. For the same molecule, the “signal, direct binding Salmonella assay” value (0.5% (w/v) SDS, conjugate 1:50, Peptone, black and white plate, tube luminometer) was 1198 ± 112, the “signal, direct binding Salmonella assay” value (0.5% (w/v) SDS, conjugate 1:50, S. aberdeen 2.5 × 10^4, black and white plate, tube luminometer) was 6697 ± 1676 and the “signal, direct binding Salmonella assay” value (0.5% (w/v) SDS, conjugate 1:50, S. aberdeen 5 × 10^3, black and white plate, tube luminometer) was 1622 ± 21. The “signal, direct binding Salmonella assay” value (0.5% (w/v) SDS, conjugate 1:50, S. aberdeen 5 × 10^4, black and white plate, tube luminometer) was 12,231 ± 723^, the “signal, direct binding Salmonella assay” value (0.5% (w/v) SDS, conjugate 1:50, S. aberdeen 10^4, black and white plate, tube luminometer) was 3199 ± 735 and the “signal, direct binding Salmonella assay” value (0.5% (w/v) SDS, conjugate 1:50, S. aberdeen 10^5, black and white plate, tube luminometer) was 22,245 ± 529^. The “signal, direct binding Salmonella assay” value (0.5% (w/v) SDS, conjugate 1:50, S. aberdeen 10^6, black and white plate, tube luminometer) was 59,070 ± 1216, the “signal, direct binding Salmonella assay” value (0.5% SDS (second block), conjugate 1:100, 2.5 × 10^4 S. aberdeen, black and white plates) was 1,265 ± 46^ and the “signal, direct binding Salmonella assay” value (0.5% SDS (second block), conjugate 1:100, 5 × 10^3 S. aberdeen, black and white plates) was 748 ± 4. The “signal, direct binding Salmonella assay” value (0.5% SDS (second block), conjugate 1:100, 10^4 S. aberdeen, black and white plates) was 908 ± 10, the “signal, direct binding Salmonella assay” value (0.5% SDS (second block), conjugate 1:100, 10^5 S. aberdeen, black and white plates) was 3,947 ± 494 and the “signal, direct binding Salmonella assay” value (0.5% SDS (second block), conjugate 1:100, 10^6 S. aberdeen, black and white plates) was 26,621 ± 843^. For the same molecule, the “signal, direct binding Salmonella assay” value (0.5% SDS (second block), conjugate 1:100, Peptone, black and white plates) was 631 ± 38, the “signal, release and detection of core oligosaccharide” value (“signal, release and detection” below) (0.5% SDS, 10^1 bacteria (species not given)) was 9918 relative light units and the “signal, release and detection” value (0.5% SDS, 10^2 bacteria (species not given)) was 9987 relative light units. The “signal, release and detection” value (0.5% SDS, 10^3 bacteria (species not given)) was 30399 relative light units, the “signal, release and detection” value (0.5% SDS, 10^5 bacteria (species not given)) was 959119 relative light units and the “signal, release and detection” value (0.5% SDS, 10^6 bacteria (species not given)) was 884352 relative light units. For the same molecule, the “signal, direct binding Salmonella assay” value (0.5% SDS, conjugate 1:100, 2.5 × 10^4 S. aberdeen, white plate, Lucy I) was 95,766 ± 6,186, the “signal, direct binding Salmonella assay” value (0.5% SDS, conjugate 1:100, 5 × 10^3 S. aberdeen, white plate, Lucy I) was 24,984 ± 1,727 and the “signal, direct binding Salmonella assay” value (0.5% SDS, conjugate 1:100, 5 × 10^4 S. aberdeen, white plate, Lucy I) was 95,766 ± 6,186. For the same molecule, the “signal, direct binding Salmonella assay” value (0.5% SDS, conjugate 1:100, 10^4 S. aberdeen, white plate, Lucy I) was 46,273 ± 2,310, the “signal, direct binding Salmonella assay” value (0.5% SDS, conjugate 1:100, 10^5 S. aberdeen, white plate, Lucy I) was 166,049 ± 288 and the “signal, direct binding Salmonella assay” value (0.5% SDS, conjugate 1:100, 10^6 S. aberdeen, white plate, Lucy I) was 374,007 ± 24,114. For the same molecule, the “signal, direct binding Salmonella assay” value (0.5% SDS, conjugate 1:100, Peptone, black and white plate, tube luminometer) was 974 ± 107, the “signal, direct binding Salmonella assay” value (0.5% SDS, conjugate 1:100, Peptone, white plate, Lucy I) was 3,103 ± 267 and the “signal, direct binding Salmonella assay” value (0.5% SDS, conjugate 1:100, S. aberdeen 2.5 × 10^4, black and white plate, tube luminometer) was 3933 ± 379. The “signal, direct binding Salmonella assay” value (0.5% SDS, conjugate 1:100, S. aberdeen 5 × 10^3, black and white plate, tube luminometer) was 1209 ± 66, the “signal, direct binding Salmonella assay” value (0.5% SDS, conjugate 1:100, S. aberdeen 5 × 10^4, black and white plate, tube luminometer) was 8721 ± 63 and the “signal, direct binding Salmonella assay” value (0.5% SDS, conjugate 1:100, S. aberdeen 10^4, black and white plate, tube luminometer) was 1606 ± 243. The “signal, direct binding Salmonella assay” value (0.5% SDS, conjugate 1:100, S. aberdeen 10^5, black and white plate, tube luminometer) was 15,009 ± 871^, the “signal, direct binding Salmonella assay” value (0.5% SDS, conjugate 1:100, S. aberdeen 10^6, black and white plate, tube luminometer) was 40,190 ± 783^ and the “signal, direct binding Salmonella assay” value (0.5% SDS, conjugate 1:150, Peptone, black and white plate, tube luminometer) was 998 ± 103. The “signal, direct binding Salmonella assay” value (0.5% SDS, conjugate 1:150, S. aberdeen 2.5 × 10^4, black and white plate, tube luminometer) was 1615 ± 132, the “signal, direct binding Salmonella assay” value (0.5% SDS, conjugate 1:150, S. aberdeen 5 × 10^3, black and white plate, tube luminometer) was 975 ± 42 and the “signal, direct binding Salmonella assay” value (0.5% SDS, conjugate 1:150, S. aberdeen 5 × 10^4, black and white plate, tube luminometer) was 6576 ± 549. The “signal, direct binding Salmonella assay” value (0.5% SDS, conjugate 1:150, S. aberdeen 10^4, black and white plate, tube luminometer) was 1415 ± 132, the “signal, direct binding Salmonella assay” value (0.5% SDS, conjugate 1:150, S. aberdeen 10^5, black and white plate, tube luminometer) was 12,817 ± 975^ and the “signal, direct binding Salmonella assay” value (0.5% SDS, conjugate 1:150, S. aberdeen 10^6, black and white plate, tube luminometer) was 31,571 ± 2.
